Source: article PMC9001978, “Determining the Effects of Differential Expression of GRKs and β-arrestins on CLR-RAMP Agonist Bias” (Frontiers in Physiology, 2022)
“Also recorded” adds a separate entry of the source.

Experiments:
CLR-RAMP2 [1] = molecular target: T1, CLR-RAMP2 (Homo sapiens, UniProt O60895+Q16602); assay: Internalisation of CLR-RAMP2 (BRET CLR-Nluc / RIT-Venus); conditions: HEK293T, CLR-Nluc + FLAG-RAMP2, RIT-Venus BRET; mean ± SEM, n = 3-4
CLR-RAMP2 [2] = molecular target: T1, CLR-RAMP2; assay: cAMP accumulation at CLR-RAMP2
CLR-RAMP1 [3] = molecular target: T2, CLR-RAMP1 (Homo sapiens, UniProt O60894+Q16602); assay: β-arrestin2 recruitment to CLR-RAMP1 (BRET); conditions: HEK293T, n = 3
T2 sequence (Q16602 23-461): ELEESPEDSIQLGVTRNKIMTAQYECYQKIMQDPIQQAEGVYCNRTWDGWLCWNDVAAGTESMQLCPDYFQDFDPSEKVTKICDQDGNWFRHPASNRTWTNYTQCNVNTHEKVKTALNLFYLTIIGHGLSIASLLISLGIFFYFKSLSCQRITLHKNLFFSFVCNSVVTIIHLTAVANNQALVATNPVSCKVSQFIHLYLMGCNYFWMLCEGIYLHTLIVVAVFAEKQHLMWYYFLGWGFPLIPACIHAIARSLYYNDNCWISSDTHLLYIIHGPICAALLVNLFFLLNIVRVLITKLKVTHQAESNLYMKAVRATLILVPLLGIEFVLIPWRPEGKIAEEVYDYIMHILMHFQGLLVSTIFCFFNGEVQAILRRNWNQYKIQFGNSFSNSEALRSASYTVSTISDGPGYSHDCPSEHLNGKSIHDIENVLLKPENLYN
T2 sequence (O60894 27-148): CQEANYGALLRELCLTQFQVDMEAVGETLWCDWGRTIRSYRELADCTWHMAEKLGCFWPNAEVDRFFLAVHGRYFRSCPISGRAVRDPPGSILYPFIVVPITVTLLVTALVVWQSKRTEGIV

CLR-RAMP2 [4] = molecular target: T1, CLR-RAMP2; assay: β-arrestin1 recruitment to CLR-RAMP2 (BRET); conditions: HEK293T, n = 3
CLR-RAMP2 [5] = molecular target: T1, CLR-RAMP2; assay: β-arrestin2 recruitment to CLR-RAMP2 (BRET); conditions: HEK293T, n = 3
CLR-RAMP1 [6] = molecular target: T2, CLR-RAMP1; assay: Internalisation of CLR-RAMP1 (BRET CLR-Nluc / RIT-Venus); conditions: HEK293T, CLR-Nluc + FLAG-RAMP1, RIT-Venus BRET; mean ± SEM, n = 3-4
CLR-RAMP3 [7] = molecular target: T3, CLR-RAMP3 (Homo sapiens, UniProt O60896+Q16602); assay: Internalisation of CLR-RAMP3 (BRET CLR-Nluc / RIT-Venus); conditions: HEK293T, CLR-Nluc + FLAG-RAMP3, RIT-Venus BRET; mean ± SEM, n = 4-5
T3 sequence (Q16602 23-461): as the sequence (Q16602 23-461) above
T3 sequence (O60896 24-148): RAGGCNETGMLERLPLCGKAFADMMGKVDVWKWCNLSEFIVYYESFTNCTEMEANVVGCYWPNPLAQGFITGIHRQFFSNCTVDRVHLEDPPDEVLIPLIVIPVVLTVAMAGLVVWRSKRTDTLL

CLR-RAMP3 [8] = molecular target: T3, CLR-RAMP3; set-up: method as in Clark et al., 2021; conditions: AM receptor 2 (AM2R), ref Clark et al., 2021; cited from earlier work
CLR-RAMP1 [9] = molecular target: T2, CLR-RAMP1; assay: β-arrestin1 recruitment to CLR-RAMP1 (BRET); conditions: HEK293T, n = 3
CLR-RAMP complexes [10] = assay: Effect of barbadin on cAMP accumulation in β-arrestin KO HEK293 cells; assay type: cell-based; conditions: 100 μM barbadin
[11] = tested on: Glucagon-like peptide-1 receptor (GLP-1R); assay: Effect on GLP-1R internalisation; assay type: cell-based; conditions: 100 μM, 30 min preincubation
5-HT2CR = conditions: ref He et al., 2021; cited from earlier work
β-arrestin-AP2 complex = conditions: ref Beautrait et al., 2017; cited from earlier work
From the text: The canonical role of β-arrestins is the desensitisation of G protein signalling; steric hindrance to disrupt G protein-receptor association and acting as scaffolds for proteins which decrease the G protein activity and output e.g. phosphodiesterases (PDEs) ([Perry et al., 2002]). Additionally, β-arrestins mediate agonist dependent internalisation at many GPCRs, through the recruitment of β2-adaptin (AP2) and subsequently clathrin, to mediate endocytosis. […] Barbadin is an inhibitor of the β-arresti ...

CLR-RAMP complexes [12] = assay: Effect of barbadin on CLR-RAMP internalisation; assay type: cell-based; conditions: any CLR-RAMP complex, at concentration that blocked GLP-1R internalisation
[13] = tested on: β2-adrenergic receptor (β2AR); conditions: ref Beautrait et al., 2017; cited from earlier work
From the text: (§1) The data we have obtained related to agonist-dependent internalisation of CLR in the presence of barbadin (Figure 3C) appear contradictory when compared to our results obtained with the HEK293∆β-arr1/2 cell lines (Figure 4A).

[14] = tested on: angiotensin-II type-1 receptor (AT1R); conditions: ref Beautrait et al., 2017; cited from earlier work
From the text: as §1

[15] = tested on: protease-activated receptor 2 (PAR2); conditions: ref Jung et al., 2021; cited from earlier work
From the text: as §1

[16] = tested on: V2-vasopressin receptor (V2R); conditions: ref Beautrait et al., 2017; cited from earlier work
From the text: as §1

[17] = tested on: free fatty acid receptor 2 (FFAR2); conditions: ref Wang et al., 2020; cited from earlier work
CLR-RAMP complexes [18] = assay: Effect of barbadin on cAMP accumulation at CLR-RAMP complexes; assay type: cell-based; conditions: all agonists, three CLR-RAMP complexes

T1 sequence (Q16602 23-461): as the sequence (Q16602 23-461) above
T1 sequence (O60895 43-175): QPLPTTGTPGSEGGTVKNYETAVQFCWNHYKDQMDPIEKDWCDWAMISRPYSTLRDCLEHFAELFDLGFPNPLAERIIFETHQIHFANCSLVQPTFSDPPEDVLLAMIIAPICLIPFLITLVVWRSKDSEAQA

CSCC[C@H](NC(=O)[C@H](CC(C)C)NC(=O)[C@H](CCC(N)=O)NC(=O)[C@H](Cc1c[nH]c2ccccc12)NC(=O)[C@H](CC(C)C)NC(=O)[C@H](CCCNC(=N)N)NC(=O)[C@H](Cc1c[nH]cn1)NC(=O)[C@H](CO)NC(=O)[C@H](CC(C)C)NC(=O)[C@H](CC(N)=O)NC(=O)[C@H](CCC(N)=O)NC(=O)[C@@H](NC(=O)[C@H](CCC(N)=O)NC(=O)[C@@H]1CSSC[C@H](NC(=O)CNC(=O)[C@@H](NC(=O)[C@H](CCCNC(=N)N)NC(=O)[C@H](CC(C)C)NC(=O)[C@H](CC(C)C)NC(=O)[C@H](CCC(N)=O)NC(=O)[C@H](C)NC(=O)[C@H](CCC(N)=O)NC(=O)[C@@H](N)[C@@H](C)O)C(C)C)C(=O)N[C@@H](C(C)C)C(=O)N[C@@H](CC(C)C)C(=O)NCC(=O)N[C@@H]([C@@H](C)O)C(=O)N1)C(C)C)C(=O)NCC(=O)N1CCC[C@H]1C(=O)N[C@@H](C)C(=O)NCC(=O)N[C@@H](CCCNC(=N)N)C(=O)N[C@@H](CCC(N)=O)C(=O)N[C@@H](CC(=O)O)C(=O)N[C@@H](CO)C(=O)N[C@@H](C)C(=O)N1CCC[C@H]1C(=O)N[C@H](C(=O)N[C@@H](CC(=O)O)C(=O)N1CCC[C@H]1C(=O)N[C@@H](CO)C(=O)N[C@@H](CO)C(=O)N1CCC[C@H]1C(=O)N[C@@H](Cc1c[nH]cn1)C(=O)N[C@@H](CO)C(=O)N[C@@H](Cc1ccc(O)cc1)C(N)=O)C(C)C [AM2, adrenomedullin 2]
Emax, internalisation (CLR-RAMP2 [1]): ~-20 ± 18 BRET units (x10^-3)
Effect of barbadin pretreatment on cAMP accumulation (CLR-RAMP2 [2]; AM2 at CLR-RAMP2): far smaller
Change in cAMP potency on β-arrestin2 overexpression (CLR-RAMP2 [2]; CLR-RAMP2, HEK293T, p = 0.02): significant decrease in potency
Emax, β-arrestin2 recruitment (CLR-RAMP1 [3]; CLR-Nluc + FLAG-RAMP1 + β-arrestin2-YFP, BRET, mean ± SEM): ~98 ± 21 BRET units (x10^-3)
Emax, β-arrestin2 recruitment (CLR-RAMP1 [3]; GRK2 overexpressed): ~54 ± 47 BRET units (x10^-3)
Emax, β-arrestin2 recruitment (CLR-RAMP1 [3]; GRK3 overexpressed): ~49 ± 8 BRET units (x10^-3)
Emax, β-arrestin2 recruitment (CLR-RAMP1 [3]; GRK4 overexpressed): ~45 ± 4 BRET units (x10^-3)
Emax, β-arrestin2 recruitment (CLR-RAMP1 [3]; GRK series: Vector): ~98 ± 21 BRET units (x10^-3)
Emax, β-arrestin1 recruitment (CLR-RAMP2 [4]; CLR-Nluc + FLAG-RAMP2 + β-arrestin1-YFP, BRET, mean ± SEM): 3 ± 1 BRET units (x10^-3)
Emax, β-arrestin1 recruitment (CLR-RAMP2 [4]; GRK2 overexpressed): 7 ± 1 BRET units (x10^-3)
Emax, β-arrestin1 recruitment (CLR-RAMP2 [4]; GRK3 overexpressed): 11 ± 1 BRET units (x10^-3)
Emax, β-arrestin1 recruitment (CLR-RAMP2 [4]; GRK4 overexpressed): 4 ± 1 BRET units (x10^-3)
Emax, β-arrestin1 recruitment (CLR-RAMP2 [4]; GRK series: Vector): 3 ± 1 BRET units (x10^-3)
Emax, β-arrestin2 recruitment (CLR-RAMP2 [5]; CLR-Nluc + FLAG-RAMP2 + β-arrestin2-YFP, BRET, mean ± SEM): 9 ± 1 BRET units (x10^-3)
Emax, β-arrestin2 recruitment (CLR-RAMP2 [5]; GRK4 overexpressed): 10 ± 2 BRET units (x10^-3)
Emax, β-arrestin2 recruitment (CLR-RAMP2 [5]; GRK series: Vector): 9 ± 1 BRET units (x10^-3)
Emax, internalisation (CLR-RAMP1 [6]): ~-63 ± 41 BRET units (x10^-3)
Emax, internalisation (CLR-RAMP3 [7]): ~-8 ± 3 BRET units (x10^-3)
Rank order of potency (CLR-RAMP3 [8]): equipotent agonists
Emax, β-arrestin1 recruitment (CLR-RAMP1 [9]; CLR-Nluc + FLAG-RAMP1 + β-arrestin1-YFP, BRET, mean ± SEM): ~63 ± 27 BRET units (x10^-3)
Emax, β-arrestin1 recruitment (CLR-RAMP1 [9]; GRK2 overexpressed): ~46 ± 5 BRET units (x10^-3)
Emax, β-arrestin1 recruitment (CLR-RAMP1 [9]; GRK3 overexpressed): ~32 ± 2 BRET units (x10^-3)
Emax, β-arrestin1 recruitment (CLR-RAMP1 [9]; GRK4 overexpressed): ~28 ± 7 BRET units (x10^-3)
Emax, β-arrestin1 recruitment (CLR-RAMP1 [9]; GRK6 overexpressed): ~10 ± 6 BRET units (x10^-3)
Emax, β-arrestin1 recruitment (CLR-RAMP1 [9]; GRK series: Vector): ~63 ± 26 BRET units (x10^-3)

Nn1cnc2scc(-c3ccc(Cc4ccccc4)cc3)c2c1=O [Barbadin]
Effect of barbadin on cAMP accumulation (CLR-RAMP complexes [10]): agonist dependent reduction in cAMP accumulation
Effect on GLP-1R internalisation [11]: successfully block
Effect on GLP-1R internalisation ([11]; listed as barbadin): inhibit GLP-1R internalisation
Block of receptor internalisation (5-HT2CR): successfully block
Effect on β-arrestin recruitment (β-arrestin-AP2 complex): without inhibiting β-arrestin recruitment
Inhibition of β-arrestin-AP2 interaction (β-arrestin-AP2 complex): inhibitor of the β-arrestin-AP2 interacting domain
Effect of barbadin on agonist-mediated CLR internalisation (CLR-RAMP complexes [12]): did not block agonist-mediated CLR internalisation; also recorded: no effect on receptor internalisation
Block of receptor internalisation [13]: successfully block
Block of receptor internalisation [14]: successfully block
Block of receptor internalisation [15]: successfully block
Block of receptor internalisation [16]: successfully block
Block of receptor internalisation [17]: successfully block
Effect of barbadin on cAMP accumulation (CLR-RAMP complexes [18]): reduce cAMP accumulation
Effect of barbadin on cAMP accumulation (CLR-RAMP complexes [18]; listed as barbadin): significantly reduce cAMP accumulation; also recorded: significantly attenuated cAMP signalling
